Measurements reported in patent publication US20250144087A1, “USE OF VE607 FOR THE TREATMENT OF SARS-COV-2 INFECTIONS AND RELATED DISEASES” (priority 2022, published 2025).

What was measured:
[1] = system: pseudoviral particles expressing the Spike from SARS-CoV-2; assay: microbe, parasite or virus in culture; format: cell-based; conditions: SARS-CoV-2 D614G pseudovirus
[2] = target: SARS-CoV-2 Spike (Severe acute respiratory syndrome coronavirus 2, UniProt P0DTC2, D614G); format: cell-based
[3] = system: pseudoviral particles bearing the Spike glycoproteins from the major VOCs (Alpha, Beta, Gamma, Delta and Omicron); format: cell-based, SARS-CoV-2
[4] = system: SARS-CoV-2 D614G Spike Y505T pseudoviral particles; format: cell-based
[5] = system: SARS-CoV-2 D614G Spike Q498V pseudoviral particles; format: cell-based
[6] = system: authentic SARS-CoV-2 D614G; format: cell-based
[7] = target: interaction of sACE2 with the full SARS-CoV-2 Spike expressed at the cell surface (Severe acute respiratory syndrome coronavirus 2, UniProt P0DTC2, D614G); format: binding

O[C@@H](COc1cccc(OC[C@H](O)CN2CCCCC2)c1)CN1CCCCC1 [(R,R)-VE607, (2R,2′R)-3,3′-(1,3-phenylenebis(oxy))bis(1-(piperidin-1-yl)propan-2-ol)]
capacity to neutralize SARS-CoV-2 pseudovirus particles compared with commercially available VE607 [1]: same capacity as commercially available VE607

O[C@H](COc1cccc(OC[C@@H](O)CN2CCCCC2)c1)CN1CCCCC1 [(S,S)-VE607, (2S,2'S)-3,3′-(1,3-phenylenebis(oxy))bis(1-(piperidin-1-yl)propan-2-ol)]
capacity to neutralize SARS-CoV-2 pseudovirus particles compared with commercially available VE607 [1]: same capacity as commercially available VE607

C=CCC(/C=C/OCC(O)CN(CC)CCC)OCC(O)CN(CC)CCC (centres unmarked) [VE607]
S1 shedding / trimer stability [2]: decrease shedding
IC50 values [3]: low micromolar range
IC50 [4]: > 40000 nM
IC50 [5]: 1800 nM
IC50 [6]: 2420 nM
competition with sACE2 for interaction with Spike [7]: no competition
